For data set [1], the target named is T1, HypD (trans-4-hydroxy-L-proline dehydratase; CdHypD) (Clostridioides difficile, UniProt A0A031WDE4).
T1 construct: gene pflD; full length, N-terminal hexahistidine tag (pET28a-CdHypD), E. coli BL21-CodonPlus(DE3)-RIL (delta proC for assays); dimeric; for activity the Gly765 radical was installed by HypD-AE
T1 sequence (A0A031WDE4 1-789): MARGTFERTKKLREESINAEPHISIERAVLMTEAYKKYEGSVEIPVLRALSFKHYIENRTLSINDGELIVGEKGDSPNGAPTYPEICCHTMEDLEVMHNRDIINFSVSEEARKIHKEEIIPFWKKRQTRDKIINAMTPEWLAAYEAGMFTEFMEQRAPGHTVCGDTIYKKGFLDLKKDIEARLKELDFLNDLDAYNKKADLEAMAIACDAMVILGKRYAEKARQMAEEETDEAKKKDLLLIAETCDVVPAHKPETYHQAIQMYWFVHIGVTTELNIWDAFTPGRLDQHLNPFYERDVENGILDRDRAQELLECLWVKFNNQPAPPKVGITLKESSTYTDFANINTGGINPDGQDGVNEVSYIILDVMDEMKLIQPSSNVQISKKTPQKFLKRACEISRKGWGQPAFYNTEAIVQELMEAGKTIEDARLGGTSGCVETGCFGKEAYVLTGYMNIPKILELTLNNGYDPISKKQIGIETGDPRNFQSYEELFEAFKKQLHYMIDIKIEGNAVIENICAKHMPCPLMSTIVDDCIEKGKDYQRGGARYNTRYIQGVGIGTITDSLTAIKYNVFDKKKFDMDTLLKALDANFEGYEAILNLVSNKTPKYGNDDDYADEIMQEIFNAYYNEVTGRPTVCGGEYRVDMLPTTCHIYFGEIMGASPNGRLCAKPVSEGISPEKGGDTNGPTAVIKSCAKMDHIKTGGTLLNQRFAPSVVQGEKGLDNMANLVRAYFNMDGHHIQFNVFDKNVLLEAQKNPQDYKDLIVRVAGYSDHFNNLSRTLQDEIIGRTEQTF
Description: X-ray crystal structure, […] Å. Format: binding. To be noted: unactivated enzyme; active site; 4 mM Hyp in crystallization buffer, 100 mM Hyp in cryoprotectant, pH 7.5, 21 °C.

Data set [2] concerns the molecule itself. Briefly: crystal structure; unactivated wild-type HypD with intact N-terminal hexahistidine tag, crystallised aerobically, hanging drop, 21°C, 14% PEG 3350, 100 mM KCl, 100 mM HEPES pH 7.5; glycerol-bound (2.05 Å) and Hyp-bound (2.52 Å) crystals; eight chains in the asymmetric unit.

As to `O=C(O)[C@@H]1C[C@@H](O)CN1` [Hyp], in data set [1], the “X-ray crystal structure, 2.52 Å” value is recorded as “In the active site of the Hyp-bound HypD structure, electron density was observed for the substrate”.

B1: trans-4-hydroxy-L-proline dehydratase (HypD) from Clostridioides difficile 70-100-2010, wild type, unactivated (enzyme)
chain: MARGTFERTKKLREESINAEPHISIERAVLMTEAYKKYEGSVEIPVLRALSFKHYIENRTLSINDGELIVGEKGDSPNGAPTYPEICCHTMEDLEVMHNRDIINFSVSEEARKIHKEEIIPFWKKRQTRDKIINAMTPEWLAAYEAGMFTEFMEQRAPGHTVCGDTIYKKGFLDLKKDIEARLKELDFLNDLDAYNKKADLEAMAIACDAMVILGKRYAEKARQMAEEETDEAKKKDLLLIAETCDVVPAHKPETYHQAIQMYWFVHIGVTTELNIWDAFTPGRLDQHLNPFYERDVENGILDRDRAQELLECLWVKFNNQPAPPKVGITLKESSTYTDFANINTGGINPDGQDGVNEVSYIILDVMDEMKLIQPSSNVQISKKTPQKFLKRACEISRKGWGQPAFYNTEAIVQELMEAGKTIEDARLGGTSGCVETGCFGKEAYVLTGYMNIPKILELTLNNGYDPISKKQIGIETGDPRNFQSYEELFEAFKKQLHYMIDIKIEGNAVIENICAKHMPCPLMSTIVDDCIEKGKDYQRGGARYNTRYIQGVGIGTITDSLTAIKYNVFDKKKFDMDTLLKALDANFEGYEAILNLVSNKTPKYGNDDDYADEIMQEIFNAYYNEVTGRPTVCGGEYRVDMLPTTCHIYFGEIMGASPNGRLCAKPVSEGISPEKGGDTNGPTAVIKSCAKMDHIKTGGTLLNQRFAPSVVQGEKGLDNMANLVRAYFNMDGHHIQFNVFDKNVLLEAQKNPQDYKDLIVRVAGYSDHFNNLSRTLQDEIIGRTEQTF
notes: HypD (trans-4-hydroxy-L-proline dehydratase), glycyl radical enzyme, gene amplified from C. difficile 70-100-2010 genomic DNA; UniProt A0A031WDE4; all residues other than the hexahistidine tag are seen in the structures; Crystallised with the N-terminal hexahistidine tag intact; also called Hyp dehydratase; CdHypD; source: E. coli BL21-CodonPlus(DE3)-RIL, pET28a-CdHypD, purified (Ni-NTA); not …
As a reminder, the stoichiometry N is a count of units in the complex or per binding partner. B1: in data set [2], the “stoichiometry N” value worked out at 2.

Source of the values: publication PMC7077986, “Molecular basis for catabolism of the abundant metabolite trans-4-hydroxy-L-proline by a microbial glycyl radical enzyme” (eLife, 2020).
